# Measurements from US6204005A, “Immunoassay for toxic congeners of polychlorinated biphenyls” (priority 1995, dated 2001).
# Key:
# [1] = system: anti-hapten antibody (sera of rabbits immunized with KLH-hapten I conjugate); test: Inhibition ELISA with BSA-Competitor 11 coating conjugate (Methods A,B); assay type: binding, rabbit; conditions: for I10 (mdl): Table 3, selected analytes, NR/>100 ppm, NR--No Assay Response
# Description: A solution of the coating antigen, consisting of 100 ng of a BSA conjugate of Hapten I or Exemplified Competitor 11 above, in 50 μl of PBS (phosphate buffered saline, pH 7.4, 10 mM phosphate, 150 mM NaCl), was dispensed into each well of a 96-well microtiter plate (Dynatech Immulon-2 commercially available from Dynatech, Inc., Chantilly, Va.) and incubated at 28° C. (+/-0.5° C.) for 2 hours. The coating antigen solution was then removed from the wells and the plate was washed three times with PBS. All wash steps utilized a Cambridge Technology, Inc. Platewasher 260, commercially available from Cambridge Technology, Inc. Cambridge, Mass. The remaining active sites in the wells were blocked with a 150 μl solution of 1% BSA in PBS with 0.02% sodium azide for 2 hours at 28° C. After removal of the blocking solution the plate was washed three times with PBS. Serum stored at -20° C. was freshly thawed and diluted 100-250,000 fold with the 1% BSA in PBS/DT blocking buffer (PBS buffer containing 10% by volume dimethylformamide and 0.5% Triton X-100). This solution (50 μl/well) was then dispensed into replicate wells (3-6) on the plate, which was covered and incubated for 1 hour at room temperature (RT). After removal of the incubation solution the plate was washed three times with PBS. The labeled antibody, anti-rabbit IgG (whole molecule)--alkaline phosphatase conjugate, (Sigma No. A-8025 commercially available from Sigma Chemical Company, St. Louis, Mo.), diluted 1/500 with BSA/PBS, was added in a quantity of 50 μl/well and incubated for 1 hour at 28° C. After removal of the second antibody solution the plate was washed three times with PBS. The wells were then washed (one time) with 10 mM diethanolamine (pH 9.4) which contained 0.5 mM magnesium chloride. Substrate solution (50 μl; 10 mg p-nitrophenylphosphate in 10.0 ml of the diethanolamine/magnesium chloride) was added to each well and incubated for 30 minutes at 28° C. Sodium hydroxide (50 μl of a 0.05 N solution) was added to each of the wells to stop the reaction. The final Absorbance in each well was determined at 405 nm using a Cambridge Technologies, Inc. Model 750 Microplate Reader commercially available from Cambridge Technologies, Inc., Cambridge, Mass. The titer of the sera was determined by a Log Sera Dilution versus Absorbance plot and the EC50 value.
# Inhibition ELISA followed the basic assay procedure described above with the following addition: The serum sample was diluted to its EC80 value (400-1000 fold) with the 1% BSA in PBS blocking buffer to which had been added 10% dimethylformamide, volume/volume (v/v), and 0.5% Triton® X-100 (PBS-DT). An aqueous analyte solution (e.g., Aroclor® 1248) was prepared by solution of the analyte in dimethylformamide followed by dilution to the required concentration in PBS-DT. The analyte solution was added to the antibody solution to achieve the desired concentration of analyte (typically 1 ppb-100 ppm) and the resulting solution was incubated overnight at room temperature. This solution (50 μl/well) was then dispensed into replicate wells (3-6) on the plate and the assay completed as above. The minimum detection limit (I10 ) and the I50 values were determined using a Log (Analyte Concentration in parts per billion--ppb) versus Absorbance or by converting absorbance to the B/Bo ratio where B=Sample Absorbance and Bo=Absorbance of the Blank Sample. […] This figure illustrates the significant improvement in PCB sensitivity as measured by both minimum detection limit (B/Bo=0.9) and assay range (B/Bo=0.5) on using a competitor versus a hapten as the competition reagent.
# This assay format gave a minimum detection limit (I10) of approximately 0.2 ppm and an I50 of approximately 3 ppm.
# [2] = target: Hapten VII derived monoclonal antibody S2B1; test: Monoclonal antibody direct EIA with Competitor D enzyme conjugate; assay type: binding; conditions: for estimated I50: FIG. 9, 4-parameter logistic fits; for I50: FIG. 9, monoclonal antibody S2B1, text value
# Description: (§1) The direct EIA (immoblized antibody and competitor enzyme conjugate) was performed as follows. Serum or monoclonal antibody supernatant stored at -20° C. was diluted 1,000-40,000 fold with PBS which contained 0.1% Tween-20. This solution was dispensed (500 ul) into donkey anti-mouse second antibody coated tubes (DAM Tubes commercially available from Millipore Corp., Bedford, Mass.) and incubated at room temperature overnight. The antisera solution was decanted from the tubes and the tubes washed 3 times with distilled water. Non-specific sites in the tubes were blocked with 600 ul of BSA blocking buffer (EIA Blocking Buffer commercially available from Millipore Corp., Bedford, Mass.) and incubated for 2 hours at room temperature or overnight at 4° C. The blocking buffer was decanted and the tubes allowed to dry under ambient room conditions for at least 2 hours. The assay was performed by adding 500 ul of assay diluent (1% methanol (v/v) and 0.005% Tween-20 (w/v) in distilled water) to the required number of tubes followed by 10 ul of a methanol solution of the analyte (PCB congener). After a 5 minute incubation at room temperature, the solution was decanted and the tubes rinsed 3-4 times with tap water. The horseradish peroxidase competitor or Hapten VII conjugates were diluted 1,000-60,000 fold from 2-5 mg/ml stock solutions in PBS with conjugate diluent (Enzyme Conjugate Diluent commercially available from Millipore Corp., Bedford, Mass.). The enzyme conjugate (200 ul) was added to the tubes followed by a 5 minute incubation at room temperature. The conjugate solution was decanted and the tubes rinsed 3-4 times with tap water. Enzyme substrate solution (500 ul, KPL No. 50-76-04 commercially available from KPL Laboratories, Gaithersburg, Md.) was added and the tubes were incubated at room temperature for 5-15 minutes. The enzyme reaction was stopped with the addition of 500 ul of 1N HCl. The OD of the solution was determined at 450 nm. The data was plotted using Log (Congener Concentration) versus B/Bo (B=Sample Absorbance, Bo=Sample Blank Absorbance).
# Monoclonal antibodies were derived essentially as described by Karu, et al. (A. E. Karu, et al., J. Agric. Food Chem., 42, 301-309 (1994)) using Hapten VII BSA conjugate and Competitor C BSA conjugate for the primary screen.
# FIG. 9 illustrates the specificity of a direct EIA based on the Hapten VII derived monoclonal antibody S2B1 and Competitor D enzyme conjugate. Both 3,3',4,4'-tetrachlorobiphenyl and 3,3',4,4',5-pentachlorobiphenyl give ca. 1 ppb I50 values. Cross-reactions of a number of congeners which are significant Aroclor(R) consitutents are <0.001%.
# [3] = relative to 2,3,7,8-TCDD = 1.0; cited from earlier work
# [4] = system: Hapten VII sera (polyclonal antibodies); test: Sera indirect EIA with Hapten VII sera and Competitor C; assay type: binding, mice; conditions: day 120 sera, Competitor C, FIG. 7
# Description: The indirect EIA (immobilized competitor BSA conjugate) was performed as described by Karu, et al. (A. E. Karu, et al., J. Agric. Food Chem., 42, 301-309 (1994)).
# The indirect EIA (Method 18) was used to evaluate sera samples taken on day 120.
# [5] = system: Hapten VII sera (polyclonal antibodies); test: Sera direct EIA with Hapten VII sera and competitor enzyme conjugate; assay type: binding, mice
# Description: The competitors A-E and Hapten VII were conjugated to the enzyme, amino modified Horseradish Peroxidase (HRP) (horseradish peroxidase commercially available from Sigma Chemical Co. (No. P-6782), St. Louis, Mo.; amino modified per R. Hsiao and H. Royer, Archives Biochem. Biophys., 198, 379-385 (1979) to give 6-24 free amines), using the carbodiimide mediated carboxyl activation procedure described for Hapten VII in Example 24. Hapten and competitor load were determined by UV/Vis spectroscopy, also as described for Hapten VII.
# as §1
# The direct EIA (Method 19) was used to evaluate sera samples taken on day 120.
# [6] = Table 7, Hapten VII sera and Competitor D direct EIA
# [7] = direct EIA, day 120 sera, Competitor C, FIG. 8
# [8] = BSA-Competitor 11 coating conjugate, FIG. 1 Plot 3 (analyte Aroclor 1248)
compound,measurement,setting,value
"Oc1cc(Cl)ccc1Cl [2,5-dichlorophenol]",I10 (mdl),[1],> 100 ppm
COc1cccc(Cl)c1 [3-chloroanisole],I10 (mdl),[1],> 100 ppm
"Clc1ccc(-c2cc(Cl)c(Cl)c(Cl)c2)cc1Cl [BZ No. 126, 3,3',4,4',5-pentachlorobiphenyl]",estimated I50,[2],1.2 ppb
same,I50,[2],ca. 1 ppb
same,TEF,[3],0.1
"Clc1cccc(Cl)c1 [1,3-dichlorobenzene]",I10 (mdl),[1],> 100 ppm
"Clc1ccc(-c2ccc(Cl)c(Cl)c2)cc1Cl [BZ No. 77, 3,3',4,4'-tetrachlorobiphenyl]",I50,[4],< 10 ppb
same,estimated I50,[2],0.9 ppb
same,I50,[2],ca. 1 ppb
same,I50,[5]; [6],3 ppb
same,I50,[5]; [7],1.4 ppb
same,TEF,[3],0.01
"Clc1ccccc1Cl [1,2-dichlorobenzene]",I10 (mdl),[1],> 100 ppm
Oc1cccc(Cl)c1 [3-chlorophenol],I10 (mdl),[1],> 100 ppm
"O=C(O)COc1ccc(Cl)cc1Cl [2,4-dichlorophenoxyacetic acid]",I10 (mdl),[1],> 100 ppm
"Clc1ccc(Cl)cc1 [1,4-dichlorobenzene]",I10 (mdl),[1],> 100 ppm
"O=C(O)CCCCc1cc(Cl)ccc1Cl [Competitor 11, 5-(2,5-Dichlorophenyl)pentanoic acid]",I50,"[5]; Table 6, I50 of analyte 3,3',4,4'-tetrachlorobiphenyl with the listed competitor, Hapten VII sera",6-8 ppb
same,Assay sensitivity versus Hapten VII enzyme conjugate based assay,"[5]; in words, Table 6",significantly more sensitive
same,I50,[1]; [8],approximately 3 ppm
same,minimum detection limit (I10),[1]; [8],approximately 0.2 ppm
"Clc1cc(Cl)c(-c2cc(Cl)c(Cl)cc2Cl)cc1Cl [2,2',4,4',5,5'-hexachlorobiphenyl]","cross-reaction relative to 3,3',4,4'-tetrachlorobiphenyl",[4],< 0.0%
same,I50,[5]; [6],"> 20,000 ppb"
same,"cross reaction relative to 3,3',4,4'-tetrachlorobiphenyl",[5]; [7],< 0.05%
same,TEF,[3],less than 0.00001
"Clc1ccc(Cl)c(Cl)c1 [1,2,4-trichlorobenzene]",I10 (mdl),[1],> 100 ppm
